The test system of experiment [1] is hippocampal neurons. Description: Spine head width in mRFP-β-actin transfected hippocampal neurons. Type of experiment: cell-based, rat. Conditions: 10^−12 M, 5 days. The text has this:
Neurons were transfected with mRFP-β-actin on day in vitro 6 […] using LipofectAMINE™ 2000 (Invitrogen) according to the manufacturer's protocol. This protocol yielded the desired 3-5% transfection efficiency thus enabling the visualization of individual neurons. Higher efficiencies obscured the dendritic arbor of individual neurons. Expression of fluorescently tagged actin allowed clear visualization of dendritic spines, as dendritic spines are enriched in actin. On DIV7 the cells were treated with vehicle (H2O) or peptides (as described in the text) added to media. […] Slides were dried for at least 20 hours at 4° C. and fluorescent images were obtained with Slidebook 4.2 Digital Microscopy Software driving an Olympus IX81 inverted confocal microscope with a 60× oil immersion lens, NA 1.4 and resolution 0.280 μm Dendritic spine density was measured on primary and secondary dendrites at a distance of at least 150 μm from the soma. Five 50 μm long segments of dendrite from at least 10 neurons per data point were analyzed for each data point reported. […] Dendrite length was determined using the National Institutes of Health's Image J 1.41o program (NIH, Bethesda, Md.) and the neurite tracing program Neuron J (Meijering, Jacob et al. 2004) Spines were manually counted. […]

Experiment [2] concerns hippocampal neurons. Description: Dendritic spine counts (spinogenesis) in mRFP-β-actin transfected dissociated hippocampal neurons. It counts as cell-based, rat.

Where a SMILES comes first, the peptide text is derived from it. [ ]: non-standard residue; d: D form. The star is where a group is joined. Hexanoyl = CCCCCC(=O)*; Ahx = NCCCCCC(=O)O

The compound `CCCCCC(=O)N[C@@H](Cc1ccc(O)cc1)C(=O)N[C@H](C(=O)NCCCCCC(N)=O)[C@@H](C)CC` [Dihexa, N-hexanoic-Tyr-Ile-(6)-aminohexanoic amide] (Hexanoyl-Tyr-Ile-[Ahx]-NH2) returned a spine head width in experiment [1] of 0.80 μm. For the same compound, in experiment [2] (10^−12 M, 5 day treatment, vs vehicle), the “increase in the number of spines” value is recorded as about 3 fold. Besides, the “mean spine numbers per 50 μm dendrite length” value in experiment [2] (10^−12 M, acute 30 minute application on DIV12) is 23.9 spines per 50 μm dendrite leng; in experiment [2] (neurons transfected with mRFP-β-actin alone, HGF 10 ng/ml, Dihexa or Nle1-AngIV 10^−12 M, 48 hours), 21.8 spines per 50 μm dendrite leng; in experiment [2] (neurons transfected with mRFP-β-actin and shMet (c-Met knock-down), HGF 10 ng/ml, Dihexa or Nle1-AngIV 10^−12 M), 12.0 spines per 50 μm dendrite leng.
